Laboratory results as given in patent US20250144067A1, “PERSONALIZED STARVATION THERAPY FOR CANCER” (Faeth Therapeutics, Inc., priority 2021, published 2025).
Counter-ions that a name gives are not always drawn. Like-named read-outs stand apart in the source and are kept apart here.

What was measured:
[1] = test system: NCI-H292 lung cancer cells; test: FDA drug screening, complete media vs cholesterol-free media with simvastatin (TABLE 2); format: cell-based, human
[2] = test system: NCI-H292 lung cancer cells; test: FDA drug screening, complete media vs cholesterol-free media without statin (TABLE 1); format: cell-based, human
[3] = NCI-H292 cells, FDA drug library screen, cholesterol-free media with simvastatin 0.04 μM
[4] = NCI-H292 cells, FDA drug library screen, complete media
[5] = complete media vs cholesterol-free media + simvastatin (0.04 μM), […]
[6] = Complete minus Cholesterol-free, […]
[7] = NCI-H292 cells, cholesterol-free media without statin
[8] = NCI-H292 cells, cholesterol-free media with simvastatin 0.04 μM, cell growth value in FDA drug screen
[9] = NCI-H292 cells, complete media, cell growth value in FDA drug screen
[10] = complete media minus cholesterol-free media + simvastatin, >0 enhanced anti-cancer activity, about 0 neutral, <0 antagonist
[11] = Complete minus Cholesterol-free, greater than 0 enhanced anti-cancer activity, about 0 neutral, below 0 antagonist
[12] = NCI-H292 cells, FDA drug library screen, cholesterol-free media without statin
[13] = NCI-H292 cells, drug in cholesterol-free media with simvastatin 0.04 μM
[14] = NCI-H292 cells, drug in complete media
[15] = complete media vs cholesterol-free media + simvastatin (0.04 μM), >0 enhanced anti-cancer activity, about 0 neutral, <0 antagonist
[16] = Complete minus Cholesterol-free, >0 enhanced anti-cancer activity, about 0 neutral, <0 antagonist
[17] = NCI-H292 cells, cholesterol-free media without statin, FDA drug library screen
[18] = NCI-H292 cells, complete media, FDA drug library screen

Cl.NCCCC[C@H](N)C(=O)O [L-Lysine hydrochloride]
Cholesterol-free media + simvastatin (0.04 μM) [1, 3]: 1.192
Complete Media [1, 4]: 1.079
Difference [1, 5]: −0.11
Difference [2, 6]: −0.25
Cholesterol-free [2, 7]: 1.006
Complete ([2]; NCI-H292 cells, complete media): 0.7519

NCCCC[C@H](N)C(=O)O [L-Lysine]
Cholesterol-free media + simvastatin (0.04 μM) ([1]; NCI-H292 cells, FDA library drug in cholesterol-free media with simvastatin 0.04 μM): 1.021
Complete Media ([1]; NCI-H292 cells, FDA library drug in complete media): 0.7295
Difference [1, 5]: −0.29
Difference [2, 6]: −0.24
Cholesterol-free [2, 7]: 1.096
Complete ([2]; NCI-H292 cells, complete media): 0.8592

CSCC[C@H](N)C(=O)O [L-Methionine]
Cholesterol-free media + simvastatin (0.04 μM) [1, 8]: 0.8406
Complete Media [1, 9]: 0.8869
Difference [1, 10]: 0.05
Difference [2, 11]: −0.12
Cholesterol-free [2, 12]: 0.9015
Complete [2, 4]: 0.7822

Cl.NCCC[C@H](N)C(=O)O [L-Ornithine (hydrochloride)]
Cholesterol-free media + simvastatin (0.04 μM) ([1]; NCI-H292 cells, cholesterol-free media with simvastatin 0.04 μM, FDA drug library screen (TABLE 2)): 0.8763
Complete Media ([1]; NCI-H292 cells, complete media, FDA drug library screen (TABLE 2)): 0.8132
Difference ([1]; complete media minus cholesterol-free media + simvastatin (0.04 μM), >0 enhanced anti-cancer activity, about 0 neutral, <0 antagonist): −0.06
Difference [2, 11]: −0.11
Cholesterol-free [2, 12]: 1.434
Complete [2, 4]: 1.328

NCCC[C@H](N)C(=O)O [L-Ornithine]
Cholesterol-free media + simvastatin (0.04 μM) [1, 3]: 0.9484
Complete Media [1, 4]: 1.47
Difference [1, 10]: 0.52
Cholesterol-free [2, 7]: 1.429
Complete ([2]; NCI-H292 cells, complete media): 1.042
Difference ([2]; complete vs cholesterol-free media, greater than 0 enhanced anti-cancer activity, about 0 neutral, below 0 antagonists): −0.39

N[C@@H](Cc1ccccc1)C(=O)O [L-Phenylalanine]
Cholesterol-free media + simvastatin (0.04 μM) [1, 13]: 0.988
Complete Media [1, 14]: 0.7918
Difference [1, 15]: −0.20
Difference [2, 16]: −0.24
Cholesterol-free [2, 7]: 1.103
Complete ([2]; NCI-H292 cells, complete media): 0.8607

O=C(O)[C@@H]1CCCN1 [L-Proline]
Cholesterol-free media + simvastatin (0.04 μM) [1]: 1.794
Complete Media [1]: 1.088
Difference [1]: −0.71
Cholesterol-free [2]: 1.37
Complete [2]: 0.9909
Difference [2]: −0.38

C[Se]CC[C@H](N)C(=O)O [L-SelenoMethionine]
Cholesterol-free media + simvastatin (0.04 μM) [1, 3]: 1.886
Complete Media [1, 4]: 1.795
Difference [1, 15]: −0.09
Difference ([2]; Complete minus Cholesterol-free, greater than 0 enhanced anti-cancer activity, about 0 neutral, below 0 antagonists): −0.92
Cholesterol-free ([2]; NCI-H292 cells in cholesterol-free media without statin): 2.252
Complete ([2]; NCI-H292 cells in complete media): 1.327

N[C@@H](CO)C(=O)O [L-Serine]
Cholesterol-free media + simvastatin (0.04 μM) [1, 13]: 1.125
Complete Media [1, 14]: 0.9461
Difference [1, 5]: −0.18
Cholesterol-free [2, 7]: 1.3
Complete ([2]; NCI-H292 cells, complete media): 0.9649
Difference ([2]; complete vs cholesterol-free media, […]): −0.33

N[C@@H](Cc1cc(I)c(Oc2cc(I)c(O)c(I)c2)c(I)c1)C(=O)O [L-Thyroxine (sodium salt pentahydrate)]
Cholesterol-free media + simvastatin (0.04 μM) [1, 8]: 0.8275
Complete Media [1, 9]: 0.8532
Difference [1, 10]: 0.03
Difference [2, 11]: −0.15
Cholesterol-free [2, 12]: 1.238
Complete [2, 4]: 1.085

N[C@@H](Cc1cc(I)c(Oc2cc(I)c(O)c(I)c2)c(I)c1)C(=O)O.[Na] [L-Thyroxine (sodium)]
Cholesterol-free media + simvastatin (0.04 μM) [1, 8]: 0.8676
Complete Media [1, 9]: 0.8889
Difference [1, 10]: 0.02
Difference [2, 16]: −0.07
Cholesterol-free [2, 17]: 1.137
Complete [2, 18]: 1.071

N[C@@H](Cc1cc(I)c(Oc2cc(I)c(O)c(I)c2)c(I)c1)C(=O)O [L-Thyroxine]
Cholesterol-free media + simvastatin (0.04 μM) [1, 3]: 1.059
Complete Media [1, 4]: 1.284
Difference [1, 10]: 0.23
Difference [2, 16]: −0.28
Cholesterol-free [2, 7]: 1.11
Complete ([2]; NCI-H292 cells, complete media): 0.8302

N[C@@H](Cc1c[nH]c2ccccc12)C(=O)O [L-Tryptophan]
Cholesterol-free media + simvastatin (0.04 μM) [1, 13]: 1.157
Complete Media [1, 14]: 0.9202
Difference [1, 15]: −0.24
Cholesterol-free [2, 17]: 1.009
Complete [2, 18]: 1.103
Difference ([2]; complete vs cholesterol-free media, >0 enhanced anti-cancer activity, about 0 neutral, <0 antagonist): 0.09

CC(C)[C@H](N)C(=O)O [L-Valine]
Cholesterol-free media + simvastatin (0.04 μM) ([1]; NCI-H292 cells, cholesterol-free media with simvastatin 0.04 μM, […]): 0.8399
Complete Media ([1]; NCI-H292 cells, complete media, […]): 0.8676
Difference ([1]; complete media minus cholesterol-free media + simvastatin, […]): 0.03
Difference [2, 6]: −0.26
Cholesterol-free [2, 7]: 1.382
Complete ([2]; NCI-H292 cells, complete media): 1.127
